The values that follow are results of earlier work, collected in Sander's compilation of Henry's law constants.

This data set can be described thus: Henry solubility constant Hcp at 298.15 K (mol/(m3 Pa)). The following applies: cited value.
The mark [1] stands for this setting: reference: Barcelo and Hennion (1997).
Where [2] appears, read: reference: Burkholder et al. (2015).
The mark [3] stands for this setting: reference: Burkholder et al. (2019).
Setting [4] is: reference: Fogg and Sangster (2003).
Where [5] appears, read: reference: Sander et al. (2006).
[6] abbreviates: reference: Sander et al. (2011).

“And” between values parts separate entries of the source, which are not always exact repeats. Identical values can stand only once.

As for `COc1cc(C=O)ccc1O` [vanillin], the “Henry solubility constant Hcp” value (reference: Brockbank (2013)) was 1700.

For the molecule `CCCC(O)CC` (centres undefined) [3-hexanol], the “Henry solubility constant Hcp” value (reference: Brockbank (2013)) is 0.37.

Consider `CCOC(=O)CC(SP(=S)(OC)OC)C(=O)OCC` (centres undefined) [malathion], for which the “Henry solubility constant Hcp” value was 4.3 under setting [1] and 20 (reference: Brockbank (2013)).

Turning to `OO` [hydrogen peroxide], the “Henry solubility constant Hcp” value by setting is: (reference: Brockbank (2013)) 950; under setting [2], 860; under setting [3], 860; under setting [4], 980; under setting [5], 760; under setting [6], 830.

Consider `COC(=O)c1c(Cl)c(Cl)c(C(=O)OC)c(Cl)c1Cl` [dacthal], for which, under “reference: Muir et al. (2004)”, the “Henry solubility constant Hcp” value is 4.4.

As for `CCCCCCC(C)O` (centres undefined) [2-octanol], the “Henry solubility constant Hcp” value (reference: Brockbank (2013)) is 0.27.

Consider `Clc1cccc(Cl)c1` [1,3-dichlorobenzene], for which the “Henry solubility constant Hcp” value was 0.0031 (reference: Brockbank (2013)), 0.0034 under setting [4] and 0.0039 (reference: Goldstein (1982)).

Turning to `c1ccc2c(c1)ccc1ccccc12` [phenanthrene], the “Henry solubility constant Hcp” value is 0.34 (reference: Brockbank (2013)), 0.23 under setting [4], 0.093 (reference: Goldstein (1982)) and 0.076 (reference: McCarty (1980)).

With `CCOC(=O)C(F)(F)F` [trifluoroethanoic acid, ethyl ester], the “Henry solubility constant Hcp” value runs as follows: under setting [2], 0.00089; under setting [3], 0.00089; under setting [6], 0.00089.

Take `C/C=C/CCCC` [trans-2-heptene]: the “Henry solubility constant Hcp” value (reference: Brockbank (2013)) is 2.4e-05.

`CCOP(=S)(OCC)Oc1nc(Cl)c(Cl)cc1Cl` [chlorpyrifos]: the “Henry solubility constant Hcp” value is 0.0056 under setting [1]; 3.4 (reference: HSDB (2015)); 1.8 and 2.1 (reference: Muir et al. (2004)).

Consider `CCCC=O` [butanal], for which the “Henry solubility constant Hcp” value reads like this: (reference: Brockbank (2013)) 0.091; under setting [2], 0.095; under setting [3], 0.095; under setting [5], 0.095; under setting [6], 0.095.

For the molecule `CCOO` [ethyl hydroperoxide], the “Henry solubility constant Hcp” value is 3.3 (reference: Brockbank (2013)), 3.3 under setting [2], 3.3 under setting [3] and 3.3 under setting [6].

`CCCCNCCCC` [dibutylamine]: the “Henry solubility constant Hcp” value (reference: Brockbank (2013)) is 0.13.

On to `CC(C)Cl` [2-chloropropane], for which the “Henry solubility constant Hcp” value (reference: Brockbank (2013)) was 0.00057.

Regarding `CN/C(=N\[N+](=O)[O-])NCc1cnc(Cl)s1` [clothianidin], the “Henry solubility constant Hcp” value (reference: MacBean (2012b)) was 3.4e+10.

As for `CSc1nc(NC(C)C)nc(NC(C)C)n1` [prometryn], the “Henry solubility constant Hcp” value under setting [1] was 20.

Consider `CC=C(C)C` [2-methyl-2-butene], for which the “Henry solubility constant Hcp” value (reference: Brockbank (2013)) is 5.7e-05.

In the case of `[O]N=O` [nitrogen dioxide], the “Henry solubility constant Hcp” value under setting [2] was 0.00012; the “Henry solubility constant Hcp” value under setting [3] is 0.00012; the “Henry solubility constant Hcp” value under setting [5] is 0.00014; the “Henry solubility constant Hcp” value under setting [6] is 0.00012; the “Henry solubility constant Hcp” value (reference: Schwartz and White (1981)) was 0.00012.

On to `CCCCCl` [1-chlorobutane], for which the “Henry solubility constant Hcp” value (reference: Brockbank (2013)) was 0.00056.

For `CCCCCCCCN` [1-octanamine], the “Henry solubility constant Hcp” value (reference: Brockbank (2013)) was 0.22.

As to `CCCC(=O)CC` [3-hexanone], the “Henry solubility constant Hcp” value (reference: Brockbank (2013)) is 0.079.

For `Cc1ccc(C)c(C)c1C` [1,2,3,4-tetramethylbenzene], the “Henry solubility constant Hcp” value (reference: Brockbank (2013)) was 0.0029.

For `CC(C)CO` [2-methyl-1-propanol], the “Henry solubility constant Hcp” value was 0.8 (reference: Brockbank (2013)); 0.83 under setting [2]; 0.83 under setting [3]; 1 under setting [5]; 1 under setting [6].

Regarding `CCCOC(C)=O` [propyl ethanoate], where the note is “reference: Brockbank (2013)”, the “Henry solubility constant Hcp” value is 0.044.

For the molecule `CC(C)COC(=O)C(C)C` [2-methylpropyl 2-methylpropanoate], the “Henry solubility constant Hcp” value (reference: Brockbank (2013)) was 0.0074.

Consider `O=C(O)C1(C(=O)Nc2ccc(Cl)cc2Cl)CC1` [cyclanilide], for which the “Henry solubility constant Hcp” value (reference: MacBean (2012b)) is 14000.

Regarding `FC(F)(F)C(F)(F)C(F)(F)C(F)(F)C(F)(F)F` [dodecafluoropentane], where the note is “reference: Brockbank (2013)”, the “Henry solubility constant Hcp” value was 4.6e-08.

Turning to `C#CCC` [1-butyne], under “reference: Brockbank (2013)”, the “Henry solubility constant Hcp” value is 0.00056.

For the molecule `CS` [methanethiol], the “Henry solubility constant Hcp” value is 0.0038 under setting [2]; 0.0038 under setting [3]; 0.0026 (reference: Goldstein (1982)); 0.0038 under setting [5]; 0.0038 under setting [6].
